From US20150225377A1, “VEGFR3 INHIBITORS” (CANCER THERAPEUTICS CRC PTY LIMITED, priority 2012, published 2015)

Target: T1, VEGFR3 (Homo sapiens, UniProt P35916)
T1 construct: host or cells: HMVEC-dLyAD
Experiment: VEGFR3 Phospho ELISA assay in HMVEC-dLyAD cells, VEGFC stimulated
Assay type: cell-based
Settings: 1 hour compound, 250 ng/mL VEGFC 10 minutes
Method: Adult human dermal lymphatic microvascular endothelial cells (HMVEC-dLyAD) (Cat#CC-2810, Lonza) were seeded into clear-bottom, TC treated 12 well plates (Cat #665180, Greiner Bio-One) in EGM-2MV (Cat#CC-3202, Lonza) at 180,000 cells/well (volume 1 mL), and the plates incubated at 37° C. and 5% CO2 for 6 hours. The media was replaced with EBM-2 (Cat #CC-3156, Lonza)+0.1% BSA (Cat#A8412, Sigma) and cells incubated for a further period (overnight at 37° C. and 5% CO2).
96 well Maxisorp immuno plates (Cat #439454, Nunc) were coated with 100 μL of Total VEGFR3 capture antibody (Part #841888, Human Total VEGFR3/FLT4 ELISA Kit, Cat #DYC3491, R&D Systems), or Phospho VEGFR3 Capture antibody (Part #841885, Human Phospho VEGFR3/FLT4 ELISA Kit, Cat#DYC2724, R&D Systems). The plates were covered and incubated at room temperature overnight.
The coating antibody was flicked out and the plates washed three times with Wash Buffer (Phosphate buffered saline (137 mM NaCl, […], […], […], pH 7.2-7.4), 0.05% Tween 20). 300 μL of blocking buffer (5% v/v Tween 20, 5% w/v sucrose in PBS) was then added to wells and plate incubated for 2 hours at room temperature. Blocking solution is flicked out and plates washed three times and tapped dry.
Compound dilution series were prepared in EBM-2 (Cat #CC-3156, Lonza)+0.1% BSA (Cat#A8412, Sigma) with constant 0.1% DMSO concentration. 439 μL of sample or vehicle control was added to the cell monolayers. Cells are treated for 1 hour at 37° C. and 5% CO2. 250 ng/mL Recombinant human VEGFC (Cat #2179-VC, R & D Systems) added to wells and plates incubated for an additional 10 minutes at 37° C. and 5% CO2.
The media and compounds were removed and the cell monolayer washed once in Dulbecco's Phosphate Buffered Saline (Cat #21600-044, Invitrogen). 130 μL of Lysis buffer added to wells and cell lysate harvested and transferred to tubes and stored on ice. Complete lysis buffer was prepared by adding 10 μL Protease Inhibitor Cocktail (Cat #P8340, Sigma-Aldrich), 10 μL PMSF (Phenylmethanesulfonyl fluoride, Cat #P7626, Sigma-Aldrich, prepared as 500 mM DMSO stock) per 1 mL of Phosphosafe™ Extraction Reagent (Cat #71296, Merck).
The harvested samples were then diluted 1:2 in IC Diluent #18 (5% Tween 20/PBS) and 100 μL transferred to the Total and Phospho VEGFR3 coated, blocked and washed 96 well plates and incubated for 2 hours at room temperature. The plates were then washed three times in wash buffer as described above and tapped dry.
For detection of Total VEGFR3100 μL of Detection antibody (Total VEGFR3 Detection Antibody Part#841888 in Total VEGFR3 kit) diluted in IC Diluent #1 (1% w/v BSA (Cat #A7906, Sigma-Aldrich)/PBS) was added to wells and the plate incubated for 2 hours at room temperature. The plate was then washed three times in wash buffer and tapped dry. 100 μL of streptavidin-HPR diluted in IC diluent #1 Streptavidin-HRP, Part #890803 in Total VEGFR3 kit) was added to wells and incubated at room temperature for 20 minutes followed by washing as described above 100 μL Substrate solution (3,3′,5,5′-Tetramethylbenzidine (TMB) Liquid Substrate System for ELISA, Cat #T0440, Sigma-Aldrich) was added and the plate incubated for 20 minutes in the dark at room temperature followed by the addition of 50 μL stop solution (2 M H2SO4).
Total VEGFR3 levels were quantified using a Multiskan Ascent plate reader and Ascent software fitted with 450 nm filter.
For detection of Phospho VEGFR3, 100 μL of Detection antibody (Anti-Phospho-Tyrosine-HRP Detection Antibody, Part #841403 in Phospho VEGFR3 kit) was diluted in IC Diluent #1 (1% w/v BSA/PBS), added to the wells and the plate incubated for 2 hours at room temperature. The plate was then washed three times in wash buffer as described above and tapped dry. […]

T1 sequence (P35916 25-1363): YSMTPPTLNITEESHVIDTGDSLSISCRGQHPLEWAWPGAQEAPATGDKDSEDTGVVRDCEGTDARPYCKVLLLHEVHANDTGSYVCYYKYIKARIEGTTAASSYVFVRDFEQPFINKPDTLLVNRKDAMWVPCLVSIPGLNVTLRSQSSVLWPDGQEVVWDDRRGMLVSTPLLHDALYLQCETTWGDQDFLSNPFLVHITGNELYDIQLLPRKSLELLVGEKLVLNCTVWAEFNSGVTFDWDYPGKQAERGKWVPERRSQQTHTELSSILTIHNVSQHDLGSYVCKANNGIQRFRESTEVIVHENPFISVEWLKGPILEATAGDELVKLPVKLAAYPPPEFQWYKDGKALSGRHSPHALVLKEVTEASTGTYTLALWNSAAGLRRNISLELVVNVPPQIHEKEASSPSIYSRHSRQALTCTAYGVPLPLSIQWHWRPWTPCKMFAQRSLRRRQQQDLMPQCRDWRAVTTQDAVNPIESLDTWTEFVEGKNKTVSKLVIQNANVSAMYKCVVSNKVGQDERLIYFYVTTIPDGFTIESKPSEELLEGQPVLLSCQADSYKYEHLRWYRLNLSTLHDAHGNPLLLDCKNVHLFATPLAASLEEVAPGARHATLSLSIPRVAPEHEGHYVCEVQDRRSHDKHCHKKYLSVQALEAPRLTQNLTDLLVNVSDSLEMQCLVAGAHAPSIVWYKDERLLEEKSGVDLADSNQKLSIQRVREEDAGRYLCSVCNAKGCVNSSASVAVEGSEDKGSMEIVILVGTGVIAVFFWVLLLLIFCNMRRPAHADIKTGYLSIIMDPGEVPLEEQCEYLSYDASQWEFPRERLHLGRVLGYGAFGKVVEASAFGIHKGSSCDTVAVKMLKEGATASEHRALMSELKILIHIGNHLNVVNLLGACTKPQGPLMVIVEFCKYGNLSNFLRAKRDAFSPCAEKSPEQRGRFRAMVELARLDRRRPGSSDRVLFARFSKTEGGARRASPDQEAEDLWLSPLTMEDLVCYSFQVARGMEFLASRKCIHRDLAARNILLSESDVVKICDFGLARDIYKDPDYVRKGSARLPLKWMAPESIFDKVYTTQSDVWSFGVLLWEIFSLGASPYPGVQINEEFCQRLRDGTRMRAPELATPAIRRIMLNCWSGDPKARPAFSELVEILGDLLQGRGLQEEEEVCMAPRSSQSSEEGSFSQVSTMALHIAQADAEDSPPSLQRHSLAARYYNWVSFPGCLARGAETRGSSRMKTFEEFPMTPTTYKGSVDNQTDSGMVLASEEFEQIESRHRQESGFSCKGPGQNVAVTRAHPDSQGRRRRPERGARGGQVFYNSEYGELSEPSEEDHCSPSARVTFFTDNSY

Row | Structure (SMILES) | IC50 [nM]
1 | Cc1cnc(Nc2ccc(N3CCNCC3)cc2)nc1CCc1ccccc1CC(N)=O [Compound 2, 2-(2-(2-(5-methyl-2-((4-(piperazin-1-yl)phenyl)amino)pyrimidin-4-yl)ethyl)phenyl)acetamide] | 121
2 | NCc1ccc(Nc2ncc(C(F)(F)F)c(CCc3ccccc3CC(N)=O)n2)cc1 [Compound 3, 2-(2-(2-(2-((4-(Aminomethyl)phenyl)amino)-5-(trifluoromethyl)pyrimidin-4-yl)ethyl)phenyl)acetamide] | 156
3 | Cc1cnc(Nc2ccc(C3CCNCC3)nc2)nc1CCc1ccccc1CC(N)=O [Compound 4, 2-(2-(2-(5-methyl-2-((6-(piperidin-4-yl)pyridin-3-yl)amino)pyrimidin-4-yl)ethyl)phenyl)acetamide] | 2220
4 | Cc1cc(Nc2ncc(C(F)(F)F)c(CCc3ccccc3CC(N)=O)n2)ccc1C1CCNCC1 [Compound 11, 2-(2-(2-(2-((3-methyl-4-(piperidin-4-yl)phenyl)amino)-5-(trifluoromethyl)pyrimidin-4-yl)ethyl)phenyl)acetamide] | 39
5 | Cc1cnc(Nc2cccnc2)nc1CCc1ccccc1CC(N)=O [Compound 24, 2-(2-(2-(5-methyl-2-(pyridin-3-ylamino)pyrimidin-4-yl)ethyl)phenyl)acetamide] | 169
6 | Cc1cnc(Nc2ccc(OC3CCNCC3)cc2)nc1CCc1ccccc1CC(N)=O [Compound 26, 2-(2-(2-(5-methyl-2-((4-(piperidin-4-yloxy)phenyl)amino)pyrimidin-4-yl)ethyl)phenyl)acetamide] | 83
7 | Cc1cnc(Nc2ccc(C3(N)COC3)cc2)nc1CCc1ccccc1CC(N)=O [Compound 31, 2-(2-(2-(2-(4-(3-aminooxetan-3-yl)phenylamino)-5-methylpyrimidin-4-yl)ethyl)phenyl)acetamide] | 107
8 | CC(N)c1ccc(Nc2ncc(Cl)c(CCc3ccccc3CC(N)=O)n2)cc1 (stereo not drawn) [Compound 37, 2-(2-(2-(2-(4-(1-aminoethyl)phenylamino)-5-chloropyrimidin-4-yl)ethyl)phenyl)acetamide] | 26

More lines, now with the values ahead:

Row | IC50 [nM] | Structure (SMILES)
9 | 210 | Cc1cnc(Nc2ccc(C3CCN(C)CC3)nc2)nc1CCc1ccccc1CC(N)=O [Compound 5, 2-(2-(2-(5-methyl-2-((6-(1-methylpiperidin-4-yl)pyridin-3-yl)amino)pyrimidin-4-yl)ethyl)phenyl)acetamide]
10 | 62 | NC(=O)Cc1ccccc1CCc1nc(Nc2ccc(C(=O)N3CCNCC3)cc2)ncc1C(F)(F)F [Compound 6, 2-(2-(2-(2-((4-(piperazine-1-carbonyl)phenyl)amino)-5-(trifluoromethyl)pyrimidin-4-yl)ethyl)phenyl)acetamide]
11 | 116 | Cc1cc(Nc2ncc(C(F)(F)F)c(CCc3ccccc3CC(N)=O)n2)ccc1C1CCN(C)CC1 [Compound 12, 2-(2-(2-(2-((3-methyl-4-(1-methylpiperidin-4-yl)phenyl)amino)-5-(trifluoromethyl)pyrimidin-4-yl)ethyl)phenyl)acetamide]
12 | 214 | Cc1cnc(Nc2ccc(C3CCNCC3)cc2)nc1CCc1ccccc1CC(N)=O [Compound 16, 2-(2-(2-(5-methyl-2-((4-(piperidin-4-yl)phenyl)amino)pyrimidin-4-yl)ethyl)phenyl)acetamide]
13 | 18 | CC(N)c1ccc(Nc2ncc(C(F)(F)F)c(CCc3ccccc3CC(N)=O)n2)cc1 (stereo not drawn) [Compound 18, 2-(2-(2-(2-(4-(1-aminoethyl)phenylamino)-5-(trifluoromethyl)pyrimidin-4-yl)ethyl)phenyl)acetamide]
14 | 190 | Cc1cnc(Nc2cnn(C)c2)nc1CCc1ccccc1CC(N)=O [Compound 28, 2-(2-(2-(5-methyl-2-((1-methyl-^1H-pyrazol-4-yl)amino)pyrimidin-4-yl)ethyl)phenyl)acetamide]
15 | 1250 | Cc1cnc(Nc2cnn(C3CCNCC3)c2)nc1CCc1ccccc1CC(N)=O [Compound 33, 2-(2-(2-(5-Methyl-2-((1-(piperidin-4-yl)-^1H-pyrazol-4-yl)amino)pyrimidin-4-yl)ethyl)phenyl)acetamide]
